We go through 28 molecules from ChEMBL document CHEMBL3611979, “Design, synthesis and biological characterization of selective LIMK inhibitors” (Bioorg Med Chem Lett, 2015).

Data set [1] concerns the target Rho-associated protein kinase 2 (Homo sapiens, UniProt O75116). In words: Inhibition of ROCK2 (unknown origin) by radiometric assay.
The target of data set [2] is cAMP-dependent protein kinase (PKA) (Homo sapiens, UniProt P22694+P17612+P22612). In words: Inhibition of PKA (unknown origin) by radiometric assay. It counts as protein assay.
Another data set deals with LIM domain kinase 2 (Homo sapiens, UniProt P53671). Description: Inhibition of LIMK2 (unknown origin) by radiometric assay.
A further data set concerns the target LIM domain kinase 1 (Homo sapiens, UniProt P53667). In words: Inhibition of LIMK1 (unknown origin) by radiometric assay.
Data set [3] is described as follows: Inhibition of ROCK in rat A7r5 cells assessed as reduction in MLC Thr18/Ser19 phosphorylation by direct-ELISA method. It is filed as cell-based. On the technique in general: In an ELISA, binding on a coated surface is turned into a signal by an enzyme label.
Data set [4] concerns the target RAC-alpha serine/threonine-protein kinase (Homo sapiens, UniProt P31749). Description: Inhibition of AKT1 (unknown origin) by radiometric assay.
Data set [5] is described as follows: Inhibition of LIMK in human HeLa cells assessed as reduction in cofilin Ser3 phosphorylation by sandwich immunoassay. It counts as cell-based.
The next data set deals with Oryctolagus cuniculus. Description: Toxicity in ocular normotensive New Zealand White rabbit assessed as induction of conjunctival hyperemia at 200 µg/eye drop dosed as single topical administration measured 1 to 6 hrs post compound instillation. As to conditions: in vivo, topical_or_ocular. It is filed as organism-based, Conjunctiva.

Chain of LIM domain kinase 2 (P53671 whole entry, the tested form may be a part): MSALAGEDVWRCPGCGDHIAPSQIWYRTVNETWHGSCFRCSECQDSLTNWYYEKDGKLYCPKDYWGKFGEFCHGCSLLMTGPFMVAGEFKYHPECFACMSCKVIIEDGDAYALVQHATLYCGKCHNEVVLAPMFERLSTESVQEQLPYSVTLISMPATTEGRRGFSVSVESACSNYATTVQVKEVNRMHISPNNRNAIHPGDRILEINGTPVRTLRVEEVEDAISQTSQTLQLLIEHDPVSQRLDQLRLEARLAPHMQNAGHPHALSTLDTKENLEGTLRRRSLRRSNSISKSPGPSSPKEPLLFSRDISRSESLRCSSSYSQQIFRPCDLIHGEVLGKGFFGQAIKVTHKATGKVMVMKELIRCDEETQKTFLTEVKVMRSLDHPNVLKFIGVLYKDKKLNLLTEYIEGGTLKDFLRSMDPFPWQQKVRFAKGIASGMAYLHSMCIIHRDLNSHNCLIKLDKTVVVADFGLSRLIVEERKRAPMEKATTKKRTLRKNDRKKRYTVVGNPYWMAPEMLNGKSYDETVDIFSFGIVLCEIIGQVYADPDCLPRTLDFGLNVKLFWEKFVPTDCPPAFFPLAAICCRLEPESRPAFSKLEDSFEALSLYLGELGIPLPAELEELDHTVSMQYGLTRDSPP
Chain of Rho-associated protein kinase 2 (O75116 whole entry): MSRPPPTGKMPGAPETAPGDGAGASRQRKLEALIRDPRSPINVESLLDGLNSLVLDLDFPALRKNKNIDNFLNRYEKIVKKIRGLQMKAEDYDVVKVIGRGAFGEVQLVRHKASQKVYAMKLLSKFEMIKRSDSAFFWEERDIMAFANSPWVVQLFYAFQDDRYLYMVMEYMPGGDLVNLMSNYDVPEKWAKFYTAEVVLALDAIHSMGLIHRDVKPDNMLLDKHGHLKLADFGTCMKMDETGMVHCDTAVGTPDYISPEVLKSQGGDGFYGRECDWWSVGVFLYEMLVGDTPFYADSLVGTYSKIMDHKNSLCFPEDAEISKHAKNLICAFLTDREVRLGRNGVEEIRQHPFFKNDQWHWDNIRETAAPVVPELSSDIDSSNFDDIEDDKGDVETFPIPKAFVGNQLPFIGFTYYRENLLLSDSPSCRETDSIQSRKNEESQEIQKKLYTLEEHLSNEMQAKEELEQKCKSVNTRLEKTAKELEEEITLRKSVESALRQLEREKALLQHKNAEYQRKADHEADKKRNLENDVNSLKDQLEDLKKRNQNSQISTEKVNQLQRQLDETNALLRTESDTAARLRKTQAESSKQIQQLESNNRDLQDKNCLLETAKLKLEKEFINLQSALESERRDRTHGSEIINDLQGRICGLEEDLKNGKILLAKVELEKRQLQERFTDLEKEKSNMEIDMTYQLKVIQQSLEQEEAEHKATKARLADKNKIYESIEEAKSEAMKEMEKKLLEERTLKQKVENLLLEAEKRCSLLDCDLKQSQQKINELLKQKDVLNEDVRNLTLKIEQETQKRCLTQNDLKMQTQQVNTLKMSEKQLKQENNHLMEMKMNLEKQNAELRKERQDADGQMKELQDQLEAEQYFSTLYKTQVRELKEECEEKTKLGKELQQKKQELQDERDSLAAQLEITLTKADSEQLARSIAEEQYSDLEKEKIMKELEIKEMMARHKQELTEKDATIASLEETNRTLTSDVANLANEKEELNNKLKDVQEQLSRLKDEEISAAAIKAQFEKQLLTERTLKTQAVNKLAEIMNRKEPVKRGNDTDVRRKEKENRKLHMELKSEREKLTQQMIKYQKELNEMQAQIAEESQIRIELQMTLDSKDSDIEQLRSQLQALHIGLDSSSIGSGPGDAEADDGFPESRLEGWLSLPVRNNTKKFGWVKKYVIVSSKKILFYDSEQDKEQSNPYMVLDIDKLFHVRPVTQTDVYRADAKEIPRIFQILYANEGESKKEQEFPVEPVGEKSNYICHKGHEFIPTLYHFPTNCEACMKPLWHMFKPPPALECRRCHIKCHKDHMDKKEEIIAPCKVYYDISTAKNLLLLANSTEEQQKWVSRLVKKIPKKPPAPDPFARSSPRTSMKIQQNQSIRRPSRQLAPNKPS
Chain of LIM domain kinase 1 (P53667 whole entry, the tested form may be a part): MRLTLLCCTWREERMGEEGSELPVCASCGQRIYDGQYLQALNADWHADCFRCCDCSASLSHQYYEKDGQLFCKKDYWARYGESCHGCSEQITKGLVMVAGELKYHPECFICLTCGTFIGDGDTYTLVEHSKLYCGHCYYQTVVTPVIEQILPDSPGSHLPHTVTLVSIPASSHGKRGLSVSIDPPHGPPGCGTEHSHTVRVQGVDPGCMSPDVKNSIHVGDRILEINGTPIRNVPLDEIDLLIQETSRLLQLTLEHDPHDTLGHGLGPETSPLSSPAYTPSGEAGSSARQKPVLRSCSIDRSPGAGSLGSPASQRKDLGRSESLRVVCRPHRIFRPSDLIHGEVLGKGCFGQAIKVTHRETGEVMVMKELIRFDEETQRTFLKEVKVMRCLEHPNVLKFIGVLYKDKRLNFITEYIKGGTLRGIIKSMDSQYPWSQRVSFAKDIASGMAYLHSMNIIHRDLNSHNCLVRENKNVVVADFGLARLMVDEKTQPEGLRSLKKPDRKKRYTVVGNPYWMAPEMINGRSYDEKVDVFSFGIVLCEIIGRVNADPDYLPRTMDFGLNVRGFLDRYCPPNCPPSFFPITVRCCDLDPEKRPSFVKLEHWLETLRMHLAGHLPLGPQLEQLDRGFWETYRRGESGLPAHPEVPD
Chain of RAC-alpha serine/threonine-protein kinase (P31749 whole entry): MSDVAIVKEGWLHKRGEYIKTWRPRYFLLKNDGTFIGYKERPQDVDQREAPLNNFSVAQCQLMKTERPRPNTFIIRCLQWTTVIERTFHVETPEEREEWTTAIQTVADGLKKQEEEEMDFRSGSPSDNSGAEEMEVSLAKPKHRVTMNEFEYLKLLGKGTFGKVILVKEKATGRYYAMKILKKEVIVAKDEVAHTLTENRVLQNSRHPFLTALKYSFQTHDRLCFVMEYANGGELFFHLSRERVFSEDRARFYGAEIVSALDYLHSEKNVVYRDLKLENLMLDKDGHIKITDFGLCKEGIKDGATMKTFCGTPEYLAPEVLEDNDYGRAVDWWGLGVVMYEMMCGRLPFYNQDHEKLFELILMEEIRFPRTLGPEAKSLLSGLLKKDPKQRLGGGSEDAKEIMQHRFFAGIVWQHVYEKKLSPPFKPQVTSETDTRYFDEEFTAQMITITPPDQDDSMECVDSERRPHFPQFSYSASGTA

On to `COC(=O)c1cccc(NC(=O)C2(CN)CCN(c3ncnc4[nH]cc(C)c34)CC2)c1`, for which the 50% inhibitory concentration (IC50) (commonly the concentration that gives 50% inhibition) in data set [1] is below 1 nM; in data set [2], below 1 nM; at LIM domain kinase 2 it was below 1 nM; against LIM domain kinase 1, 16 nM.
For `Cc1c[nH]c2ncnc(N3CCC(CN(C)C)(C(=O)Nc4cccc(OC(=O)N(C)C)c4)CC3)c12`, the half-inhibitory concentration (IC50) in data set [1] was 40 nM; in data set [2] it was 2.6 nM; on LIM domain kinase 2 it was below 1 nM; on LIM domain kinase 1, 19 nM.
Consider `COC(=O)c1cccc(NC(=O)C2(CN(C)C)CCN(c3ncnc4[nH]cc(C)c34)CC2)c1`, for which the half-inhibitory concentration (IC50) in data set [1] worked out at 8.9 nM; in data set [2] it was 24 nM; at LIM domain kinase 2, 1.5 nM; against LIM domain kinase 1 it was 27 nM.
Turning to `COC(=O)c1cccc(NC(=O)C2(N)CCN(c3ncnc4[nH]cc(C)c34)CC2)c1`, the IC50 is 100 nM in data set [1], 81 nM in data set [2], 7.4 nM against LIM domain kinase 2 and 18 nM at LIM domain kinase 1.
Consider `COC(=O)c1cccc(NC(=O)C2(N(C)C)CCN(c3ncnc4[nH]cc(C)c34)CC2)c1`, for which the IC50 in data set [1] worked out at 63 nM; in data set [2], 150 nM; against LIM domain kinase 2 it was 12 nM; against LIM domain kinase 1, 37 nM.
Regarding `COC(=O)COc1cccc(NC(=O)C2(CN(C)C)CCN(c3ncnc4[nH]cc(C)c34)CC2)c1`, the IC50 in data set [1] is 7.9 nM; in data set [2] it was 5.4 nM; on LIM domain kinase 2, below 1 nM; against LIM domain kinase 1 it was 38 nM.
`COC(=O)Cc1cccc(NC(=O)C2(CN(C)C)CCN(c3ncnc4[nH]cc(C)c34)CC2)c1`: the IC50 was 56 nM in data set [1], 7 nM in data set [2], below 1 nM against LIM domain kinase 2 and 57 nM on LIM domain kinase 1.
Regarding `COC(=O)c1ccc(NC(=O)C2(CN(C)C)CCN(c3ncnc4[nH]cc(C)c34)CC2)cc1`, the half-inhibitory concentration (IC50) came out at 7.2 nM in data set [1], 2.7 nM in data set [2], 7.7 nM on LIM domain kinase 2 and 41 nM against LIM domain kinase 1.
In the case of `CCCOC(=O)c1cccc(NC(=O)C2(CN(C)C)CCN(c3ncnc4[nH]cc(C)c34)CC2)c1`, the IC50 in data set [1] was 41 nM; in data set [2], 5.8 nM; at LIM domain kinase 2 it was 2.1 nM; at LIM domain kinase 1 it was 50 nM.
In the same order, the values of `Cc1c[nH]c2ncnc(N3CCC(CN(C)C)(C(=O)Nc4cccc(C(=O)OC(C)C)c4)CC3)c12` are 53 nM, 22 nM, 2.2 nM and 41 nM.
As to `CCC(C)OC(=O)c1cccc(NC(=O)C2(CN(C)C)CCN(c3ncnc4[nH]cc(C)c34)CC2)c1` (stereo not given), the IC50 was 137 nM in data set [1], 24 nM in data set [2], 4.6 nM on LIM domain kinase 2 and 50 nM against LIM domain kinase 1.
As to `C#CCOC(=O)c1cccc(NC(=O)C2(CN(C)C)CCN(c3ncnc4[nH]cc(C)c34)CC2)c1`, the IC50 is 16 nM in data set [1], 2.2 nM in data set [2], below 1 nM against LIM domain kinase 2 and 7.6 nM against LIM domain kinase 1.
In the case of `COC(=O)c1cccc(NC(=O)C2(CN(C)C)CCN(c3ncnc4[nH]ccc34)CC2)c1`, the IC50 in data set [1] was 1.8 nM; in data set [2], 1.1 nM; against LIM domain kinase 2, 13 nM; against LIM domain kinase 1, 23 nM.
Take `COC(=O)c1cccc(NC(=O)C2(CN(C)C)CCN(c3ncnc4[nH]ncc34)CC2)c1`: the IC50 in data set [1] amounted to 62 nM; in data set [2] it was 5.1 nM; against LIM domain kinase 2, 193 nM; against LIM domain kinase 1, 282 nM.
As for `COC(=O)c1cccc(NC(=O)C2(CN(C)C)CCN(c3ccnc4[nH]ncc34)CC2)c1`, the half-inhibitory concentration (IC50) in data set [1] turned out to be 11 nM; in data set [2] it was 3.8 nM; against LIM domain kinase 2, 274 nM; at LIM domain kinase 1, 65 nM.
`COC(=O)c1cccc(NC(=O)C2(CN(C)C)CCN(c3ncnc4c3CC(=O)N4)CC2)c1`: the 50% inhibitory concentration (IC50) in data set [1] was above 10000 nM; in data set [2], 1130 nM; at LIM domain kinase 2, 1860 nM; on LIM domain kinase 1, 1000 nM.
`COC(=O)c1cccc(NC(=O)C2(N)CCN(c3ncnc4[nH]ccc34)CC2)c1`: the IC50 in data set [1] is 67 nM; in data set [2] it was 69 nM; on LIM domain kinase 2, 9.6 nM; against LIM domain kinase 1, 31 nM.
`COC(=O)c1cccc(NC(=O)C2(N)CCN(c3ccncn3)CC2)c1`: the IC50 is above 1000 nM in data set [1], above 1000 nM in data set [2], above 10000 nM against LIM domain kinase 2 and above 1000 nM against LIM domain kinase 1.
For `COC(=O)c1cccc(NC(=O)C2(N)CCN(c3cc(N)ncn3)CC2)c1`, the 50% inhibitory concentration (IC50) is 2060 nM in data set [1], above 1000 nM in data set [2], 4560 nM on LIM domain kinase 2 and 945 nM on LIM domain kinase 1.
In the same order, the values of `COC(=O)c1cccc(NC(=O)C2(N)CCN(c3ccnc(N)n3)CC2)c1` are 416 nM, above 1000 nM, above 10000 nM and above 1000 nM.
In the same order, the values of `COC(=O)c1cccc(NC(=O)C2(N)CCN(c3cc(NC(C)=O)ncn3)CC2)c1` are above 1000 nM, above 1000 nM, 494 nM and 239 nM.
As for `COC(=O)c1cccc(NC(=O)C2(N)CCN(c3ccnc(NC(C)=O)n3)CC2)c1`, the IC50 in data set [1] was above 1000 nM; in data set [2], above 1000 nM; on LIM domain kinase 2 it was above 10000 nM; against LIM domain kinase 1 it was above 10000 nM.
As for `COC(=O)c1cccc(NC(=O)C2(CN(C)C)CCN(c3ncnc4[nH]cc(C#N)c34)CC2)c1`, the IC50 in data set [1] was 2.5 nM; in data set [2], below 1 nM; against LIM domain kinase 2, 4 nM; against LIM domain kinase 1, 25 nM.
In the same order, the values of `COC(=O)c1cccc(NC(=O)C2(CN(C)C)CCN(c3ncnc4[nH]cc(F)c34)CC2)c1` are 5.7 nM, below 1 nM, 2.8 nM and 20 nM.
`COC(=O)c1cccc(NC(=O)C2(CN(C)C)CCN(c3ncnc4[nH]c(C)cc34)CC2)c1`: the IC50 in data set [1] came out at 652 nM; in data set [2], 332 nM; at LIM domain kinase 2 it was 8 nM; on LIM domain kinase 1 it was 23 nM.
Turning to `COC(=O)c1cccc(NC(=O)C2(CN(C)C)CCN(c3ncnc4[nH]c(C)c(C)c34)CC2)c1`, the EC50 (in general, the concentration needed to bring the measured effect to its halfway point) in data set [3] is above 10000 nM. Further, the IC50 is above 1000 nM in data set [1]; above 1000 nM in data set [2]; 1.6 nM against LIM domain kinase 2; 26 nM on LIM domain kinase 1; above 1000 nM in data set [4].
With `Cc1[nH]c2ncnc(N3CCC(CN(C)C)(C(=O)Nc4cccc(OC(=O)N(C)C)c4)CC3)c2c1C`, the EC50 in data set [3] is above 10000 nM; in data set [5], 9 nM. For the same molecule, the half-inhibitory concentration (IC50) is above 1000 nM in data set [1]; above 1000 nM in data set [2]; 1.4 nM at LIM domain kinase 2; 22 nM against LIM domain kinase 1; above 1000 nM in data set [4].
Consider `Cc1c[nH]c2ncnc(N3CCC(CN)(C(=O)Nc4cccc(OC(=O)N(C)C)c4)CC3)c12` [LX-7101], for which the EC50 in data set [3] was 2300 nM; in data set [5] it was 8.7 nM. For the same molecule, the IC50 was 10 nM in data set [1], below 1 nM in data set [2], 1.6 nM on LIM domain kinase 2 and below 1 nM in data set [4]. The Activity entry in the data set on Oryctolagus cuniculus is on record as “Toxic”.
